# Measured values: patent US20040235922A1, “Compositions and methods for inducing adipose tissue cell death” (priority 2003, published 2004)
# “Also recorded” adds a separate entry of the source.
# How the values were obtained:
# EPI/PAR and RP fat pads = assay: EPI/PAR and RP fat pad apoptosis, % DNA fragmentation (Example 2); assay type: in vivo; conditions: 200 ppm in diet, 21 days, WT and GDF-8 KO mice
# Description: (§1) Animals: Twelve-week old male (n=10) and female (n=10) GDF-8 (−/−) knockout mice and male (n=10) and female (n=10) GDF-8 (+/+) WT mice were used in the study. GDF-8 knockout mice, which were derived from the 129/SvJ mouse strain, were originally obtained from MetaMorphix Inc. and were bred in-house for the study. Mice were housed singly in suspended wire cages in a room maintained at 22±1 C and with a 12:12 hour light/dark cycle. Mice were provided ground rodent chow (ProLab® RMH 2500; Purina Mills, St. Louis, Mo.) and water ad libitum. Mice were cared for in accordance with the Guide for the Care and Use of Laboratory Animals.
# (§2) Materials: Clenbuterol (Sigma Chemical Company, St. Louis, Mo., item# C5423), was thoroughly mixed into the ground rodent chow to provide a 200 ppm concentration.
# DNA Isolation and Apoptosis Assay: DNA was isolated from fresh fat tissues and separated into two fractions: fragmented and genomic DNA. The samples were first run on an agarose gel to identify a ladder pattern of internucleosomal DNA degradation, which is characteristic of apoptosis (Qian, H., M. J. Azain, M. M. Compton, D. L. Hartzell, G. J. Hausman, and C. A. Baile, Brain administration of leptin causes deletion of adipocytes by apoptosis. Endocrinology, 1998. 139(2): p. 791-4). Apoptosis was then quantified as the ratio of fragmented- to total-DNA as previously described (Gullicksen, P. S., R. G. Dean, and C. A. Baile, Detection of DNA Fragmentation and Apoptotic Proteins, and Quantification of Uncoupling Protein Expression by Real-Time RT-PCR in Adipose Tissue. J Biochem Biophys Methods, 2004. 58(1): p. 1-13). […] DNA content was measured using PicoGreen (Molecular Probes, Inc., Eugene, Oreg.) on a SpectraMax Gemini Spectrofluorometer (Molecular Devices, Sunnyvale, Calif.). […] Apoptosis was verified by the presence of a DNA ladder pattern, which was visualized by a Fluor Chem 8000 fluorescence imaging system (Alpha Innotech, San Leandro, Calif.).
# Statistical Analysis: The study was analyzed as a 2×2×2 factorial design (N=5/cell). […]
# serum leptin = assay: Serum leptin concentration in WT and GDF-8 KO mice (Example 2); assay type: in vivo; conditions: 200 ppm in diet
# Description: as §1, §2
# Daily Observations: Food intake was measured daily, and body weight was measured on days 0, 3, 7, 10, 14, 17, 20, and 21 at approximately 1430 h during the treatment period. At 15 weeks of age (day 21), a final body weight measurement was obtained approximately one hour prior to euthanasia, and mice were sacrificed by decapitation following CO2 asphyxiation.
# [1] = Body composition analysis by PIXImus densitometry in WT and GDF-8 KO mice (Example 2); assay type: in vivo; conditions: 200 ppm in diet, 21 days
# brain and liver = conditions: in vivo; cited from earlier work
# mouse adipocytes = conditions: in vitro; cited from earlier work
# [2] = WT and GDF-8 KO mice, Mean ± SEM
smiles,measurement,setting,value
"CC(C)(C)NCC(O)c1cc(Cl)c(N)c(Cl)c1 (stereo not shown) [Clenbuterol, clenbuterol]",Adipocyte apoptosis in EPI/PAR and RP fat pads compared to control,EPI/PAR and RP fat pads,increased
same,% DNA Fragmentation EPI/PAR,"EPI/PAR and RP fat pads; Mean ± SEM, control 0.9 ± 0.1",2.5 ± 0.2 %
same,% DNA Fragmentation RP,"EPI/PAR and RP fat pads; Mean ± SEM, control 0.9 ± 0.2",2.5 ± 0.2 %
same,Effect on serum leptin concentrations,serum leptin,did not significantly affect; also recorded: not affected
same,Serum Leptin Concentration,"serum leptin; 20 days, Mean ± SEM",3.98 ± 0.49 ng/mL
same,% Fat,[1]; [2],15.7 ± 1.0%
same,Bone Mineral Content,[1]; [2],0.52 ± 0.02 g
same,Bone Mineral Density,[1]; [2],0.06 ± 0.001 g
same,Fat,[1]; [2],4.1 ± 0.2 g
same,Lean,[1]; [2],22.7 ± 1.1 g
same,"Effect on BMD, BMC, area, lean weight, fat weight, or fat %",[1]; main effects,no effect
same,Apoptosis in brain and liver,brain and liver,protect against apoptosis
same,Insulin binding to mouse adipocytes,mouse adipocytes,decreased
